The target in series [1] is T1, peroxisomal matrix protein (SCP2) (Homo sapiens, UniProt P22307).
T1 sequence (P22307 1-143 isoform P22307-2): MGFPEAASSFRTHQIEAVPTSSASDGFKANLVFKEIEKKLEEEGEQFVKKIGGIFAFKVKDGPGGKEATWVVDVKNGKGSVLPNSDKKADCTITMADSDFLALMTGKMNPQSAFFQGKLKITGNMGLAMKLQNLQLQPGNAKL
The series can be described thus: Titration of fluorescent dye with peroxisomal matrix protein (SCP2). The format is binding. Particulars: dye 250 nM, FIG. 2b. From the text: (§1) In a preferred embodiment of the invention, the assay for identifying lipid binding sites of proteins using the compounds according to formula I as defined above, comprises the steps of • a) dissolving a compound according to formula I as defined above in an aqueous solvent, • b) adding the protein to be tested for containing a lipid binding site, preferably in various concentrations, • c) measuring the intensity of fluorescence emission at the wavelength of maximal emission of the fluorescent dye.
(§2) The fluorescent dye will bind to any lipid-binding site of the protein, and the resulting increase in the hydrophobicity surrounding of the dye will result in an increase in the intensity of the fluorescence and a shift in the emission to a shorter wavelength. The emission-wavelength of a compound according to formula I in a hydrophobic surrounding can be determined in a non-aqueous solution such as methanol.
(§3) For determining the submaximal concentration of dye binding to the protein, the latter was titrated until no further fluorescence increase at 620 nm could be detected.

A short description of series [2]: Excitation and emission values of the fluorescent dyes in solvent. The class given is physicochemical. Particulars: for Emission / Excitation: measured in methanol. As to the method:
Some exemplary fluorescent dyes according to the invention together with values for excitation and emission are included in table 1. […] The excitation and emission values of the fluorescent dyes were measured in methanol, which simulates a protein-environment, thus yielding a shift of the emission to shorter wavelengths. For comparison, excitation and emission values for compound 10 were also measured in HEPES buffer (i.e. under initial, aqueous assay conditions). In this aqueous environment, the excitation is 620 nm and the emission is 688 nm compared to an emission at 662 nm in methanol.
as §2

Series [3] concerns the target bovine serum albumin (BSA) (Bos taurus, UniProt P02769). The series can be described thus: Titration of fluorescent dye with bovine serum albumin (BSA). The format is binding. Conditions: for wavelength of maximal emission intensity: FIG. 1a/1b.
From the text: as §1, §2, §3

The next series in a line: Water solubility. The class given is physicochemical.
The next series concerns the target BSA (Bos taurus, UniProt P02769). As to the method: Depending on the strength of the binding of the ligand to the lipid binding site of the protein, the ligand releases the fluorescent dye from the hydrophobic lipid binding site. This can be measured by a decrease of the intensity of fluorescence at the emission wavelength of the dye in hydrophobic surrounding, as imitated by dissolving the dye in methanol.
Increasing concentrations of lipid or drug were added to replace the dye in a dose-dependent fashion. Fluorescence values at 620 nm were corrected for basal fluorescence at 620 nm prior to protein addition as well as for dilution effects from adding increasing ligand concentrations. The starting fluorescence value minus the value at a given ligand concentration was plotted as % replacement.

The target in a further series is cytochrome c (Homo sapiens, UniProt P99999). Particulars: whole cells; cited from earlier work.
Sequence of cytochrome c (P99999 whole entry, species assumed): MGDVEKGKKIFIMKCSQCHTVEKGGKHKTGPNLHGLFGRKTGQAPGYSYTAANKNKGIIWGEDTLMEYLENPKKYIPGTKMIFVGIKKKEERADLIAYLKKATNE

Entries after “also recorded” stand apart in the source; their conditions may differ. Read-outs that look alike come from different tables or passages of the source.

Sequence of BSA (P02769 25-607): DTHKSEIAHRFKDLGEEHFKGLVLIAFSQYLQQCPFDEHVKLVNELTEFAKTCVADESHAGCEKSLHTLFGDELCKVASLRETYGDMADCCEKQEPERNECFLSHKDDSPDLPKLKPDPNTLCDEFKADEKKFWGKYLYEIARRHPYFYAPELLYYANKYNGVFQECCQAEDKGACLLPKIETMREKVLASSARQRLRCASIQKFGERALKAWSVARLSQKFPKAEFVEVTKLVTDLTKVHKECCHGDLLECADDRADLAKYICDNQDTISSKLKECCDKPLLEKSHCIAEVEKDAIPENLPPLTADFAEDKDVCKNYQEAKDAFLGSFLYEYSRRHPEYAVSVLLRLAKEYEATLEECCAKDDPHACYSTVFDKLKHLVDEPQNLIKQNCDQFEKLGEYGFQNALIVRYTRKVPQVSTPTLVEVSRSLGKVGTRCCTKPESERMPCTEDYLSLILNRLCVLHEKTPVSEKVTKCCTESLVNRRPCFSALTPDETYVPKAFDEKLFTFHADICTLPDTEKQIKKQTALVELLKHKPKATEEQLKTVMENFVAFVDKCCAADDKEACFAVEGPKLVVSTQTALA
Sequence of bovine serum albumin (BSA) (P02769 25-607): as above

In the case of `CCN(CC)c1ccc2nc3c4cc(OCCCC(=O)O)ccc4c(=O)cc-3oc2c1` [compound 11, nile red butyric acid], the “binding of SCP2 to dye compared with BSA and MAO B” value in series [1] is listed as “weakest”. Besides, the Emission in series [2] was determined as 631 nm. This molecule gave an Excitation in series [2] of 544 nm. In addition, the “change of fluorescence on titration with BSA” value in series [3] (FIG. 1a (dye 0.25 μM) / FIG. 1b (dye 3 μM)) is “shift in the emission to a shorter wavelength and an increase in the intensity of the fluorescence”. Also, the “binding of BSA to dye compared with SCP2 and MAO B” value in series [3] (dye 250 nM, FIG. 2b) was “strongest binding”. The “wavelength of maximal emission intensity” value in series [3] (in the absence of BSA) is 657 nm; in series [3] (in the presence of BSA), 620 nm. Besides, the water solubility result in “Water solubility” is on record as “increased water solubility”.
In series [2], `CCN(CC)c1ccc2nc3c4cc(O)ccc4c(=O)cc-3oc2c1` [compound 1] registered an Emission of 629 nm and an Excitation of 540 nm.
For the molecule `CCN(CC)c1ccc2nc3c4ccc(O)c(Br)c4c(=O)c(Br)c-3oc2c1` [compound 5, 4,6-Dibromo-9-diethylamino-3-hydroxy-benzo[a]phenoxazin-5-one], in series [2], the Emission is 653 nm and the Excitation turned out to be 562 nm.
As to `CCCCOc1ccc2c3nc4c(C)cc(N(CC)CC)cc4sc-3cc(=O)c2c1` [compound 7], in series [2], the “Quantum Yield” value is 0.29, the Emission is given as 664 nm and the Excitation is 585 nm.
In series [2], `CCN(CC)c1ccc2nc3c4cc(O)ccc4c(=O)c(Cl)c-3oc2c1` [compound 3] showed an Emission of 643 nm and an Excitation of 549 nm.
For `CCN(CC)c1cc(C)c2nc3c4ccc(O)cc4c(=O)cc-3sc2c1` [compound 6, 9-Diethylamino-3-hydroxy-11-methyl-benzo[a]phenothiazin-5-one], in series [2], the Emission stood at 665 nm and the Excitation worked out at 580 nm.
For `N[C@@H](Cc1c[nH]c2ccccc12)C(=O)O` [tryptophan], the “release of dye from BSA” value is “not able to release all the dye from BSA” on BSA (2BrNR 250 nM, 5.54 μM BSA, 282.62 μM ligand, FIG. 5a) and “not able to release all the dye from BSA” on BSA (NRBA, 2 μM BSA, 1 mM ligand, FIG. 5b). Besides, at BSA (replacement of NRBA from 2 μM BSA, FIG. 4/5b), the “lipid binding sites of albumin occupied / dye molecules replaced” value is listed as “only replaced one molecule of the dye; also recorded: occupation of one binding site”.
As to `CCN(CC)c1ccc2nc3c4ccc(O)cc4c(=O)c(Br)c-3oc2c1` [compound 4, 6-Bromo-9-diethylamino-3-hydroxy-benzo[a]phenoxazin-5-one], in series [2], the Emission is recorded as 650 nm and the Excitation was found to be 552 nm.
For `CCCCOc1ccc2c3nc4ccc(N(CC)CC)cc4oc-3c(Br)c(=O)c2c1` [compound 8], in series [2], the “Quantum Yield” value worked out at 0.35, the Emission is given as 650 nm and the Excitation was 556 nm.
For `CCN(CC)c1ccc2nc3c4cc(O)ccc4c(=O)c(Br)c-3oc2c1` [compound 2], in series [2], the Emission stood at 640 nm and the Excitation came to 550 nm.
`CCN(CC)c1ccc2nc3c4ccccc4c(=O)cc-3oc2c1` [nile red]: at cytochrome c, the “quenching of fluorescence by cytochrome c” value is “strong quenching effect”.

The values above are taken from US20080038840A1, “Fluorescent Method And Compounds To Monitor Protein-Lipid Binding” (EUROPAEISCHES LABORATORIUM FUER MOLEKULARBIOLOGIE, priority 2004, published 2008).
